Measurements as given in ChEMBL document CHEMBL3045439, “Isoforms of the heteropteran Nezara viridula ecdysone receptor: protein characterisation, RH5992 insecticide binding and homology modelling” (Pest Manag Sci, 2011).

Legend:
Assay type in all cases: protein-complex assay
Ecdysone receptor [1] = molecular target: T1, Ecdysone receptor (Spodoptera frugiperda, UniProt Q8MWR1+Q8MWR2); assay: Binding affinity to Spodoptera frugiperda (fall armyworm) EcR
T1 sequence (Q8MWR2 whole entry): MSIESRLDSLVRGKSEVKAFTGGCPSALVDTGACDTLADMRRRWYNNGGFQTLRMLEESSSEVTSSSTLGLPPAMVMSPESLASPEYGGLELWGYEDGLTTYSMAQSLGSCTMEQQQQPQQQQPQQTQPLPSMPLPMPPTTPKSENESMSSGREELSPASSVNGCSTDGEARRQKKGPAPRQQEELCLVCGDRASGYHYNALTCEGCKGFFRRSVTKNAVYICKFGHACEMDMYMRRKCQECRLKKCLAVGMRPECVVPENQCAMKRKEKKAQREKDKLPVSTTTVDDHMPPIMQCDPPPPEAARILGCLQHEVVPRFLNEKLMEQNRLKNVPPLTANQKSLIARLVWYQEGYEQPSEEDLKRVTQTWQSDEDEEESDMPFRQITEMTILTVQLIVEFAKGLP
T1 sequence (Q8MWR1 whole entry): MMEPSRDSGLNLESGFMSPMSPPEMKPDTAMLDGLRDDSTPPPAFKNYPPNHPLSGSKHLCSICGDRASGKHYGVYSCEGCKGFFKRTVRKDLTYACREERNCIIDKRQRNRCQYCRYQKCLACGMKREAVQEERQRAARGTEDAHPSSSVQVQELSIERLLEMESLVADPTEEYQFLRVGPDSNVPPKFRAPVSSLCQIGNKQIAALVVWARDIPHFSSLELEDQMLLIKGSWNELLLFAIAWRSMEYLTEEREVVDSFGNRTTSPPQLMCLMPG

Ecdysone receptor [2] = molecular target: T2, Ecdysone receptor (Aedes aegypti, UniProt P49880+Q9GSG8); assay: Binding affinity to Aedes aegypti EcR
T2 sequence (P49880 whole entry): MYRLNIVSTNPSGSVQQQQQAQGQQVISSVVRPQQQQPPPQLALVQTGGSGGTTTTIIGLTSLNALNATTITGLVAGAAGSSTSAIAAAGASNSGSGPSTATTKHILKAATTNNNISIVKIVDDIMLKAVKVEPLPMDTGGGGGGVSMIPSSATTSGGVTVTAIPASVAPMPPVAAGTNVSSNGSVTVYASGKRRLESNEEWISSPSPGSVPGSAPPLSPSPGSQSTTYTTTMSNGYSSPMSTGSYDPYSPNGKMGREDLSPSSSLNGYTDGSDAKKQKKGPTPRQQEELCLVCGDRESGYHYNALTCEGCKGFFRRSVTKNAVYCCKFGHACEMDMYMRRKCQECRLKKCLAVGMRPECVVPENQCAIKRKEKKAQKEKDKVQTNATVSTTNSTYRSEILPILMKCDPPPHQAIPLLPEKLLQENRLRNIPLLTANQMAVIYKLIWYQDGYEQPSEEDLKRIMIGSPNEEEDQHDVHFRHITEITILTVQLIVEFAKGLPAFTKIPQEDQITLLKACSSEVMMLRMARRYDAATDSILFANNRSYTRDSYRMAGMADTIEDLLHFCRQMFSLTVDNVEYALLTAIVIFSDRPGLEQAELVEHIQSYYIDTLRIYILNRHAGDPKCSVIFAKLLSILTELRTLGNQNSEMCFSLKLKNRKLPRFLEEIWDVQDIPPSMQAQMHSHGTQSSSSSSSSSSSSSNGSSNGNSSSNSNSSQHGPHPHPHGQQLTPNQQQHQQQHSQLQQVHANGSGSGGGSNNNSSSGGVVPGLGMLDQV
T2 sequence (Q9GSG8 whole entry): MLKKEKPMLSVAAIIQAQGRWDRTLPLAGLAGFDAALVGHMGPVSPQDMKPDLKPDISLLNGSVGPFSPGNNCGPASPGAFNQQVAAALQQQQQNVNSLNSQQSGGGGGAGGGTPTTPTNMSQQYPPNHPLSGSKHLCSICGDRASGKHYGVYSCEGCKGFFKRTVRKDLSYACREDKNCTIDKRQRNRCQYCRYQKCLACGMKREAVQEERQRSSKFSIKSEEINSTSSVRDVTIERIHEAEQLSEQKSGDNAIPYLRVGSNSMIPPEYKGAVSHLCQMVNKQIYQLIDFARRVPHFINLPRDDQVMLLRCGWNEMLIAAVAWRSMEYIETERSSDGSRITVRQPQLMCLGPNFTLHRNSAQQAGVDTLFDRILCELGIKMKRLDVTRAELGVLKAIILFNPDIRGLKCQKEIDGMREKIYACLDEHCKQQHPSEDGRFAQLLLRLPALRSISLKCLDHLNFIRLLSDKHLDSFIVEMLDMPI

Ecdysone receptor [3] = molecular target: T3, Ecdysone receptor (Nezara viridula, UniProt E5L6Y0+E5L6Y1); assay: Binding affinity to Nezara viridula EcR10
T3 sequence (E5L6Y1 whole entry): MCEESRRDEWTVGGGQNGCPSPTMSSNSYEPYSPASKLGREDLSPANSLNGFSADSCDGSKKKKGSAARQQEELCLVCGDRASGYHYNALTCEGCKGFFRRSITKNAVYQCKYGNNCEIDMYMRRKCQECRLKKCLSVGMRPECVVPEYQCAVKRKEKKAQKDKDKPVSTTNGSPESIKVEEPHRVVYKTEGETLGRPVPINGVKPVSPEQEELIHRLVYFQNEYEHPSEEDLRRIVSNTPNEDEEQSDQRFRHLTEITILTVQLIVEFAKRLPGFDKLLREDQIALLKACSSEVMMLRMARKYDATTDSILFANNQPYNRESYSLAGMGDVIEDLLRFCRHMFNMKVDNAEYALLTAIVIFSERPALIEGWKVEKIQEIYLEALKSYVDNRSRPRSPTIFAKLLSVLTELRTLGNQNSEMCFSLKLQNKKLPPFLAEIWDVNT
T3 sequence (E5L6Y0 whole entry): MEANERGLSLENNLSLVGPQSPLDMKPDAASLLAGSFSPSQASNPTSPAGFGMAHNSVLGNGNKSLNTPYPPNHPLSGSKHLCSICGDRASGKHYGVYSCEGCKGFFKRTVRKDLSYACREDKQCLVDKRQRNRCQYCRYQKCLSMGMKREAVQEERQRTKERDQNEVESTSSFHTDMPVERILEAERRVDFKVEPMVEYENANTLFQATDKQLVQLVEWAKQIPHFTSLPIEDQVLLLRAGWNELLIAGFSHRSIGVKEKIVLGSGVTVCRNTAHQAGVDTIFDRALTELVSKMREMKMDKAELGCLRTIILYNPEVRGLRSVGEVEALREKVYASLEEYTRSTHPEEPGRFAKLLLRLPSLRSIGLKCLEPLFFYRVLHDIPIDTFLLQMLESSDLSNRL

CC(C)(O)CC[C@@H](O)[C@](C)(O)[C@H]1CC[C@@]2(O)C3=CC(=O)[C@@H]4C[C@@H](O)[C@@H](O)C[C@]4(C)[C@H]3CC[C@]12C [20-HYDROXYECDYSONE]
IC50 (Ecdysone receptor [1]): 166 nM

CCc1ccc(C(=O)NN(C(=O)c2cc(C)cc(C)c2)C(C)(C)C)cc1 [TEBUFENOZIDE]
Ki (Ecdysone receptor [2]): 25.1 nM
Ki (Ecdysone receptor [3]): 20000 nM
